PMC11932959, “Sulfonamide‐Bearing Pyrazolone Derivatives as Multitarget Therapeutic Agents: Design, Synthesis, Characterization, Biological Evaluation, In Silico ADME/T Profiling and Molecular Docking Study” (Pharmacology Research & Perspectives, 2025)

Columns and labels:
Assay in all cases: biochemical
[1] = target: BChE (Homo sapiens, UniProt P06276); details: mean ± standard error; Lineweaver-Burk; read-out: K I BChE
Protocol: (§1) First, purification of hCA I and hCA II enzymes for this study followed a modified procedure derived from prior literature sources. To evaluate the inhibitory effects, the esterase activities of hCA isoforms were assessed using the p‐nitrophenylacetate substrate, which is converted by both isoforms to the p‐nitrophenolate ion, as described in our prior studies. The assessment of ChE activities involved a modified adaptation of the Ellman's method, incorporating acetylthiocholine iodide for AChE and […] for BChE as the respective substrates.
(§2) The inhibition effects of the novel sulfonamide‐bearing pyrazolone derivatives were determined with different inhibitor concentrations (at least five) against hCA isoenzymes and ChEs. The IC 50 of the derivatives was calculated from Activity (%)–[inhibitor] graphs for derivatives. The inhibition types and K I values were found by Lineweaver and Burk's curves. The data analysis and graph generation were performed using GraphPad Prism version 8 for Mac (GraphPad Software, La Jolla, California, USA). The goodness of fit for enzyme inhibition models was compared using the extra sum‐of‐squares F test and the AICc approach.

[2] = target: hCA I (Homo sapiens, UniProt P00915); format: biochemical; details: Lineweaver-Burk; for Ki: mean ± standard error, read-out: K I hCA I
Sequence of hCA I (P00915 whole entry): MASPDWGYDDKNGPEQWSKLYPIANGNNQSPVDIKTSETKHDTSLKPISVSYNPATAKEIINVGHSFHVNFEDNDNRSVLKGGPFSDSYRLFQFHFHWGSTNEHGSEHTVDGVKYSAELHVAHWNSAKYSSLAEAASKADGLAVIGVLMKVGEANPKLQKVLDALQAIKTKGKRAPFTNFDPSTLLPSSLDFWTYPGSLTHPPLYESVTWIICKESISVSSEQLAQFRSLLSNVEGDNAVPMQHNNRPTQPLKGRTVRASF
Protocol: as §1, §2

[3] = target: AChE (Homo sapiens, UniProt P22303); format: biochemical; details: Lineweaver-Burk; for Ki: mean ± standard error, read-out: K I AChE
Sequence of AChE (P22303 32-614): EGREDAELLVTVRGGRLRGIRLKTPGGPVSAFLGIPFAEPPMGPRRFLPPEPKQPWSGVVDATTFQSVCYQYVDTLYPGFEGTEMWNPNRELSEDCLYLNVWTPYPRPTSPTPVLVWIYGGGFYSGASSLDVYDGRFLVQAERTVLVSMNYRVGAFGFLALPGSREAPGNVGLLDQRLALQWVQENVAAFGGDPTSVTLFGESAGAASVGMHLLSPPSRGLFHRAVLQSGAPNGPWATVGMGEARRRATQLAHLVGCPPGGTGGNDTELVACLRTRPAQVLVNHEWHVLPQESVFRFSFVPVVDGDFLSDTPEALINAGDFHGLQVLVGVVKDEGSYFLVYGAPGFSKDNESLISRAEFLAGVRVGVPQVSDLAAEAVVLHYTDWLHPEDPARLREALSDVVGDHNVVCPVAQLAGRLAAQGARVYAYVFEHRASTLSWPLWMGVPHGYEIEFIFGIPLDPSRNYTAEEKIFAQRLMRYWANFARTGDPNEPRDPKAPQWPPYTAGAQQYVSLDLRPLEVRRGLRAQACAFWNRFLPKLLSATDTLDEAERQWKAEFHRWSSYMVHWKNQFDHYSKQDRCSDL
Protocol: as §1, §2

[4] = target: hCA II (Homo sapiens, UniProt P00918); format: biochemical; details: Lineweaver-Burk; for Ki: mean ± standard error, read-out: K I hCA II
Protocol: as §1, §2

Sequence of BChE (P06276 29-602, species assumed): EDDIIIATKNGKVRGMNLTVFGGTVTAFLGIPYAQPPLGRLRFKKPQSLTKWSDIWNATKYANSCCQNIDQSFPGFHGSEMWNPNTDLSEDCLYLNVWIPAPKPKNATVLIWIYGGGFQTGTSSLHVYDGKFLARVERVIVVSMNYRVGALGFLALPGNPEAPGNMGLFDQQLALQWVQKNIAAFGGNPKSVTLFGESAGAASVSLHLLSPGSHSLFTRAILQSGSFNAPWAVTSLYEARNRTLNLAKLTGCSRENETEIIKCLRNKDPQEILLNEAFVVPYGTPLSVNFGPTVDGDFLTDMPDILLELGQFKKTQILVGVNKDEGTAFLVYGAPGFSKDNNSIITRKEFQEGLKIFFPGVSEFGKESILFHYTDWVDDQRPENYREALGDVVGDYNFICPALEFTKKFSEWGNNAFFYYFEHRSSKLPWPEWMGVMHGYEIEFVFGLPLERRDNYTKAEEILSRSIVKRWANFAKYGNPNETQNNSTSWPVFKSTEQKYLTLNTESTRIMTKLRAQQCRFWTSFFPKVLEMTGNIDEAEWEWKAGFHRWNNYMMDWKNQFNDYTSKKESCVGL

CC1=NN(C(=O)c2ccccc2)C(=O)C1/N=N/c1ccc(S(N)(=O)=O)cc1 (stereo not drawn) [1a, 4‐[(1‐Benzoyl‐3‐Methyl‐5‐Oxo‐4,5‐Dihydro‐1H‐Pyrazol‐4‐Yl)diazinyl] Benzenesulfonamide]
Ki [1]: 95.5 ± 5.78 nM
Ki [2]: 53.9 ± 5.03 nM
Ki [3]: 11.2 ± 1.15 nM
Ki [4]: 65.5 ± 5.42 nM

CC1=NN(C(=O)c2ccc(Cl)cc2)C(=O)C1/N=N/c1ccc(S(N)(=O)=O)cc1 (stereo not drawn) [1b, 4‐([1‐(4‐Chlorobenzoyl)‐3‐Methyl‐5‐Oxo‐4,5‐Dihydro‐1H‐Pyrazol‐4‐Yl]Diazenyl) Benzenesulfonamide]
Ki [1]: 73.3 ± 12.2 nM
Ki [2]: 55.9 ± 3.29 nM
Ki [3]: 13.3 ± 1.43 nM
Ki [4]: 50.8 ± 3.36 nM

CC1=NN(C(=O)c2ccc(Br)cc2)C(=O)C1N=Nc1ccc(S(N)(=O)=O)cc1 (stereo not drawn) [1c, 4‐([1‐(4‐Bromobenzoyl)‐3‐Methyl‐5‐Oxo‐4,5‐Dihydro‐1H‐Pyrazol‐4‐Yl]Diazenyl) Benzenesulfonamide]
Ki [1]: 34.8 ± 5.88 nM
Ki [2]: 49.2 ± 4.27 nM
Ki [3]: 9.47 ± 1.23 nM
inhibition type hCA II [4]: non‐competitive
Ki [4]: 85.4 ± 6.6 nM

CC1=NN(C(=O)c2ccc(C)cc2)C(=O)C1/N=N/c1ccc(S(N)(=O)=O)cc1 (stereo not drawn) [1d, 4‐([3‐Methyl‐1‐(4‐Methylbenzoyl)‐5‐Oxo‐4,5‐Dihydro‐1H‐Pyrazol‐4‐Yl]Diazenyl) Benzenesulfonamide]
Ki [1]: 64.6 ± 7.59 nM
Ki [2]: 65.1 ± 3 nM
Ki [3]: 16 ± 1.6 nM
Ki [4]: 42.6 ± 2.92 nM

COc1ccc(C(=O)N2N=C(C)C(N=Nc3ccc(S(N)(=O)=O)cc3)C2=O)cc1 (stereo not drawn) [1e, 4‐([1‐(4‐Methoxybenzoyl)‐3‐Methyl‐5‐Oxo‐4,5‐Dihydro‐1H‐Pyrazol‐4‐Yl]Diazenyl) Benzenesulfonamide]
Ki [1]: 80.9 ± 9.41 nM
inhibition type hCA I [2]: non‐competitive
Ki [2]: 75.5 ± 4.91 nM
Ki [3]: 14 ± 1.49 nM
inhibition type hCA II [4]: competitive
Ki [4]: 63.7 ± 6.71 nM

CC1=NN(C(=O)c2cccc(Cl)c2)C(=O)C1/N=N/c1ccc(S(N)(=O)=O)cc1 (stereo not drawn) [1f, 4‐([1‐(3‐Chlorobenzoyl)‐3‐Methyl‐5‐Oxo‐4,5‐Dihydro‐1H‐Pyrazol‐4‐Yl]Diazenyl) Benzenesulfonamide]
Ki [1]: 58.2 ± 8.11 nM
Ki [2]: 66.8 ± 5.15 nM
inhibition type AChE [3]: competitive
Ki [3]: 7.45 ± 0.98 nM
Ki [4]: 62.2 ± 4.19 nM

CC1=NN(C(=O)c2ccccc2)C(=O)C1/N=N/c1cccc(S(N)(=O)=O)c1 (stereo not drawn) [2a, 3‐[(1‐Benzoyl‐3‐Methyl‐5‐Oxo‐4,5‐Dihydro‐1H‐Pyrazol‐4‐Yl)diazinyl] Benzenesulfonamide]
Ki [1]: 98.3 ± 7.34 nM
Ki [2]: 73.2 ± 7.17 nM
Ki [3]: 10.5 ± 0.9 nM
Ki [4]: 55.7 ± 4.14 nM

CC1=NN(C(=O)c2ccc(Cl)cc2)C(=O)C1/N=N/c1cccc(S(N)(=O)=O)c1 (stereo not drawn) [2b, 3‐([1‐(4‐Chlorobenzoyl)‐3‐Methyl‐5‐Oxo‐4,5‐Dihydro‐1H‐Pyrazol‐4‐Yl]Diazenyl) Benzenesulfonamide]
Ki [1]: 76.4 ± 11.6 nM
Ki [2]: 37.1 ± 2.43 nM
Ki [3]: 8.66 ± 0.93 nM
inhibition type hCA II [4]: non‐competitive
Ki [4]: 24.8 ± 1.57 nM

CC1=NN(C(=O)c2ccc(Br)cc2)C(=O)C1/N=N/c1cccc(S(N)(=O)=O)c1 (stereo not drawn) [2c, 3‐([1‐(4‐Bromobenzoyl)‐3‐Methyl‐5‐Oxo‐4,5‐Dihydro‐1H‐Pyrazol‐4‐Yl]Diazenyl) Benzenesulfonamide]
Ki [1]: 96 ± 5.44 nM
Ki [2]: 44.6 ± 2.84 nM
Ki [3]: 8.43 ± 1.42 nM
Ki [4]: 28.8 ± 2.51 nM

CC1=NN(C(=O)c2ccc(C)cc2)C(=O)C1N=Nc1cccc(S(N)(=O)=O)c1 (stereo not drawn) [2d, 3‐([3‐Methyl‐1‐(4‐Methylbenzoyl)‐5‐Oxo‐4,5‐Dihydro‐1H‐Pyrazol‐4‐Yl]Diazenyl) Benzenesulfonamide]
Ki [1]: 88.6 ± 12.9 nM
inhibition type hCA I [2]: competitive
Ki [2]: 18 ± 2.86 nM
Ki [3]: 15.8 ± 1.04 nM
Ki [4]: 36.2 ± 2.78 nM

COc1ccc(C(=O)N2N=C(C)C(/N=N/c3cccc(S(N)(=O)=O)c3)C2=O)cc1 (stereo not drawn) [2e, 3‐([1‐(4‐Methoxybenzoyl)‐3‐Methyl‐5‐Oxo‐4,5‐Dihydro‐1H‐Pyrazol‐4‐Yl]Diazenyl) Benzenesulfonamide]
Ki [1]: 93.8 ± 10.5 nM
Ki [2]: 49 ± 6.25 nM
Ki [3]: 13.5 ± 0.91 nM
Ki [4]: 35.4 ± 1.94 nM

CC1=NN(C(=O)c2cccc(Cl)c2)C(=O)C1/N=N/c1cccc(S(N)(=O)=O)c1 (stereo not drawn) [2f, 3‐([1‐(3‐Chlorobenzoyl)‐3‐Methyl‐5‐Oxo‐4,5‐Dihydro‐1H‐Pyrazol‐4‐Yl]Diazenyl) Benzenesulfonamide]
Ki [1]: 136 ± 17.4 nM
Ki [2]: 37.7 ± 2.06 nM
Ki [3]: 9.52 ± 0.86 nM
Ki [4]: 33.3 ± 4.09 nM
